Patent US20260265331A1, “GLYCOSYLATED NEUROPEPTIDE DERIVATIVE INCLUDING NEUROPEPTIDE SEQUENCE AND SUGAR CHAIN, PHARMACEUTICAL COMPOSITION, INTRANASAL/NASAL DROP FORMULATION, AND USE OF GLYCOSYLATED NEUROPEPTIDE DERIVATIVE” (TOKYO UNIVERSITY OF SCIENCE FOUNDATION, priority 2022, published 2026)
Where no end group is shown, it is not given here. The star is where a group is joined. Cam = NC(=O)C*

Columns and labels:
[1] = Distribution in brain by immunostaining of frozen brain sections (Examples 6 and 7); format: in vivo, mice; conditions: Example 7, 3.0 nmol/mouse intranasal
Procedure: The brain was isolated 5 minutes after the administration and 20 minutes after the administration, respectively.
The brain isolated 5 minutes after the intranasal administration was subjected to infiltration fixation with 4% PFA at 4° C. overnight without performing perfusion fixation. The isolation of the brain 20 minutes after the intranasal administration was performed by the following process.
The mouse was fixed in a supine position under anesthesia with isoflurane, and the chest was incised. The tissue was fixed by perfusing with PBS, and subsequently with 4% PFA, from the left chamber of the heart throughout the whole body. The isolated brain was preserved in a 4% PFA solution. On the day following the isolation, the brain samples were substituted with 20% sucrose overnight (4° C.), and further with 30% sucrose overnight (4° C.). Thereafter, a frozen section with a thickness of 30 μm was prepared using a cryostat (CM3050S; Leica Microsystems).
The frozen brain section was mounted on a slide glass, and a circle was drawn around the section with a liquid blocker. A blocking buffer was added inside the circle and the section was subjected to blocking for 30 minutes at room temperature. Thereafter, the section was added with a first antibody solution including a GLP-2 polyclonal antibody, diluted by 200 times with a blocking solution, and subjected to incubation for 1 hour at room temperature. After rinsing three times with 1×PBS, the section was added with a second antibody solution including Alexa Fluor (trademark) 568 Goat Anti-Mouse IgG H&L, diluted by 500 times with a BSA/PBS solution, and subjected to incubation for 1 hour at room temperature. After rinsing three times with 1×PBS, the section was mounted with ProLong (trademark) Diamond Antifade Mountant. After confirming the solidification of the mountant, the section was subjected to fluorescent observation and imaging with a confocal laser microscope (TCS SP8; Leica) and a software (Leica Application Suite X Software; Leica).
Mice were intranasally administered with 16% DMSO or the GLP-2 derivatives (3.0 nmol/mouse), and the brain was isolated 5 minutes, 10 minutes, 20 minutes and 60 minutes after the administration.
The brain isolated 5 minutes or 10 minutes after the intranasal administration was subjected to infiltration fixation with 4% PFA at 4° C. overnight without performing perfusion fixation. The isolation of the brain 20 minutes or 60 minutes after the intranasal administration was performed by the following process.
Sections of the olfactory bulb (OB) including olfactory nerves, pons/principal sensory nucleus of trigeminal nerve (Pr5), hippocampus (HIP) and dorsomedial nucleus of the hypothalamus (DMH) were prepared by referring to the Nissil staining images and the brain map (Paxinos and Franklin, 2003).
The frozen brain section was mounted on a slide glass, and a circle was drawn around the section with a liquid blocker. A blocking buffer was added inside the circle and the section was subjected to blocking for 30 minutes at room temperature. Thereafter, the section was added with a first antibody solution including a GLP-2 polyclonal antibody, diluted by 200 times with a blocking solution, and subjected to incubation for 1 hour at room temperature. […]

[2] = Quantification by GLP-2 ELISA of amount of migration to brain; format: in vivo, mice; conditions: 6.0 nmol/mouse intranasal, brain isolated 20 minutes after administration; FIG. 5
Procedure: Mice were intranasally administered with 16% DMSO or the GLP-2 derivatives (6.0 nmol/mouse). The brain was isolated 20 minutes after the administration, and homogenized with BioMasher II (Nippi, Tokyo, Japan). A sample was prepared by performing centrifugal separation by 1000×g (4° C.) for 15 minutes and collecting a supernatant. The amount of the GLP-2 derivative in the sample was quantified using a GLP-2 ELISA kit. Specifically, a cleaning process including filling each well of a measurement plate with a cleaning fluid (350 μL) and suctioning the cleaning fluid with a pipette was performed three times. […] Finally, an enzyme reaction stop solution (100 μL) was added and an absorbance at 490 nm was measured with ARVO (PerkinElmer Japan Co., Ltd., Kanagawa, Japan) to calculate the concentration of a GLP-2 derivative.
Mice were intranasally administered with the PAS-CPP-GLP-2 derivative prepared in Example 1 (C-terminus 11-sugar, no linker, C11), the PAS-CPP-GLP-2 derivative (N-terminus 11-sugar, no linker, N11), and the PAS-CPP-GLP-2 derivative glycosylated via a C6 alkylene group (N-terminus 11-sugar, with C6 linker, C6), respectively (6.0 nmol/mouse). […] The amount of the GLP-2 derivative in the sample was quantified using a GLP-2 ELISA kit. […]

Substance: FFLIPKGRRRRRRRRGGHADGSFSDEMNTILDNLAARDFINWLIQTKITDC(Cam)-OH [PAS-CPP-GLP-2 derivative (no sugar)]
- fluorescence at OB and Pr5 ([1]; 5 minutes, FIG. 7A): a significant degree of fluorescence was observed
- fluorescence at HIP and DMH ([1]; 20 minutes, FIG. 7B): intense fluorescence was observed
- fluorescence at OB ([1]; 20 minutes, FIG. 7B): a significant degree of fluorescence was observed at OB
- fluorescence intensity at OB or Pr5 relative to 5 minutes ([1]; 20 minutes, FIG. 7B): weaker than the fluorescence observed 5 minutes after the administration
- fluorescence at HIP and DMH ([1]; 60 minutes, FIG. 7C): fluorescence was not observed
- amount of GLP-2 derivative in brain (ELISA) [2]: below the detection limit
